Experimental data from patent publication US11154569B2, “Ruthenium μ-nitrido complexes and their use as calcium uptake inhibitors” (CORNELL UNIVERSITY, priority 2018, dated 2021).

Columns and labels:
[1] = test system: mitochondria isolated from NRVMs; experiment: Mitochondrial swelling assay (Ca2+-induced mPTP opening); format: cell-based, rat; settings: 50 μM compound, Ca2+ 250 μM
Protocol: NRVMs were homogenized in ice-cold mitochondrial isolation buffer (10 mM sucrose, 200 mM mannitol, 5 mM HEPES, and 1 mM EGTA, pH 7.4) containing 1 mg/mL fatty acid-free bovine serum albumin. The homogenate was centrifuged for 10 minutes at 1000×g, and the supernatant was centrifuged again at 14,000×g for 10 minutes. The mitochondrial pellets were washed twice and centrifuged at 11,200×g. The isolated mitochondria (1 mg protein) were added to 0.2 mL of buffer mitochondrial swelling buffer (70 mM sucrose, 230 mM mannitol, 3 mM HEPES, 2 mM Trisphosphate, 5 mM succinate). Mitochondrial swelling was measured by decrease in absorbance at 540 nm after addition of Ca^2+ (250 μM). To study the protective effect of C-2 and Ru360, mitochondrial swelling assay was performed in mitochondria treated with or without the compounds (50 μM).
Additionally, the swelling of mitochondria isolated from NRVMs subjected to H/R injury in the absence or presence of C-2 or Ru360 was monitored. After baseline measurement of the absorbance at 600 nm, a single bolus of Ca^2+ (250 μM) was added to induce mPTP opening. As known, the decrease in mitochondrial absorbance indicates mitochondrial swelling and subsequent mPTP opening.

mCa2+ efflux channels = experiment: Mitochondrial Ca2+ efflux in permeabilized HEK293T cells; format: cell-based, human; settings: for effect on mCa2+ efflux: 1 μM added after 20 μM Ca2+ pulse
Protocol: An equal number of IHEK293T (6×10^6 cells) were washed in Ca^2+ free PBS, pH 7.4, resuspended and permeabilized with 40 μg/ml digitonin in 1.5 ml of intracellular medium (ICM) composed of 120 mM KCl, 10 mM NaCl, 1 mM K—H2PO4, 20 mM HE PES-Tris, pH 7.2 and 2 μM thapsigargin to block the SERCA pump. All measurements were performed in the presence of 2 mM succinate. The permeabilized cells were loaded with JC-1 (800 nM) and Fura2-FF (0.5 μM), respectively. Fluorescence was monitored in a multi-wavelength excitation dual-wavelength emission fluorimeter. [Ca^2+]out is represented as the excitation ratio (340 nm/380 nm) of Fura2-FF/FA fluorescence and ΔΨm as the ratio of the fluorescence of J-aggregate (570 nm excitation/595 nm emission) and monomer (490 nm excitation/535 nm emission) forms of JC-1. A series of extra-mitochondrial Ca^2+ bolus (20 μM) was added and mitochondrial uncoupler, CCCP (2 jμM), were added at the indicated time points. All of the experiments were performed at 37° C. with constant stirring.
FIG. 4D is a graph showing assessment of mitochondrial Ca^2+ influx and efflux rates. Permeabilized HEK293T cells were pulsed with 20 μM Ca^2+ at 350 s to measure mitochondrial Ca^2+ uptake, followed by the addition of the 1 μM C-2 or Ru360 at 550 s, 10 μM CGP37157 at 600 s, and 6 μM CCCP at 750 s. In FIG. 4D, a representative trace depicts the comparison of C-2 and Ru360. FIG. 4E is a bar chart showing quantitation of Ca^2+ influx rate. FIG. 4F is a bar chart showing quantification of Ca^2+ efflux rate after addition of C-2 or Ru360. FIG. 4G is a bar chart showing quantification of CCCP-induced release of accumulated mitochondrial Ca^2+. […] To further confirm the selectivity of C-2 for the MCU, mCa^2+ uptake, mCa^2+ efflux rates and matrix Ca^2+ levels were measured in permeabilized HEK293T cells before and after treatment with C-2 using the fluorescent Ca^2+ indicator Fura-2-FF. […] Ru360 or C-2 were next added to inhibit MCU-mediated Ca^2+ uptake and subsequently visualize [Ca^2+]m efflux (FIG. 4D).

HEK293 cells = experiment: MTT cytotoxicity assay; format: cell-based, human
Protocol: HEK293 (human embryonic kidney cells were obtained from American Type Culture Collection (ATCC, Washington D.C.) and cultured as adherent monolayers in a humidified 5% CO2 atmosphere at 37° C. in Minimum Essential Media supplemented with 10% fetal bovine serum (FBS) and 100 U/mL penicillin/streptomycin. HeLa cells were cultured in Dulbecco's Modified Eagle's Medium (DMEM) supplemented with 10% FBS and 100 U/mL penicillin/streptomycin. Cells were checked for contamination monthly using the PlasmoTest™ mycoplasma detection kit. Ventricular cardiomyocytes were isolated from neonatal rats (NRVMs) as previously described (H. M. Piper et al., Piper H. M. (eds), Cell Culture Techniques in Heart and Vessel Research, Springer Verlag: Berlin, 1990). The isolated myocytes were cultured in Ham's F-10 supplemented with 5%/o fetal bovine serum (FBS) and penicillin/streptomycin (100 U/ml) at 37° C. in a 95% air/5% CO2 humidified atmosphere for four days
Cells were seeded at 4000 cells/well in 100 μL/well in a 96-well plate and incubated for 24 hours. The media was removed and replaced with 200 μL of growth media containing varying concentrations of the complex. After 72 hours of incubation, the media was replaced with MEM containing 1 mg/mL of (4,5-dimethylthiazol-2-yl)-2,5-diepheyltetrazolium bromide (MTT). After four hours incubation, the media was removed and the purple formazan crystals were solubilized using 100 μL of a 8/1 DMSO/glycine buffer (pH 10) mixture. The absorbance at 570 nm was measured using a plate reader.
With the new nitrido-bridged ruthenium compounds C-2 and C-3 prepared, MCU-inhibitory properties of these compounds were evaluated and their activities compared to C-1, the oxo-bridged Ru360 analogue of the conventional art (S. R. Nathan et al., Inorg. Chem. 2017, 56, 3123-3126 and S. R. Nathan et al., J. Vis. Exp. 2017, 56527). The cytotoxicity of the complexes in HEK293 cells was first measured using the colorimetric thiazolyl blue tetrazolium bromide (MTT) assay, as well known in the art. […]

Q: For `N.N.N.N.N.N.N.N.O=C[O-].O=C[O-].[O-2].[Ru+3].[Ru+4]` [Ru360, reference compound], which “mitochondrial swelling (decrease in absorbance after Ca2+ addition)” value [1] is on record?
A: Its value is “no decrease in absorbance was observed”.

Q: And the “effect on mCa2+ efflux” value (mCa2+ efflux channels)?
A: The value was “do not affect mCa^2+ efflux channels”.

Q: [Ru2(μ-N)(en)4Cl2]Cl3 [C-3] was tested. Which IC50 (HEK293 cells) did it give?
A: Its IC50 is 226 ± 19 µM.

Q: With `N.N.N.N.N.N.N.N.[Cl-].[Cl-].[N-3].[Ru+4].[Ru+4]` [C-2, [Ru2(μ-N)(NH3)8Cl2]Cl3] as the molecule, how does the “toxicity to human cells” value (HEK293 cells) read?
A: Its value is “low toxicity to human cells”.

Q: What about the “mitochondrial swelling (decrease in absorbance after Ca2+ addition)” value [1] of the same molecule?
A: The value was “no decrease in absorbance was observed”.

Q: And the “effect on mCa2+ efflux” value (mCa2+ efflux channels)?
A: Its value is “do not affect mCa^2+ efflux channels”.

Q: What about the “change in activity upon treatment with CGP-37157 and CCCP” value (mCa2+ efflux channels; 10 μM CGP37157, 6 μM CCCP) of the same molecule?
A: The value was “No change”.
